TGI and GI50 data for 8 compounds are collected here from PubChem BioAssay (NCI).

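Method: 48-hour compound exposure of cells in 96-well plates, five concentrations, linear interpolation of endpoints. GI50 = concentration required for 50% inhibition of growth. Definition used: TGI = concentration required for complete inhibition of growth.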

Test systems include SK-MEL-5 melanoma; OVCAR-4 ovarian; SK-MEL-28 melanoma; HCT-116 colon; MDA-MB-231 breast; 786-0 renal; MCF7 breast; SN12C renal; MDA-MB-435; UACC-62 melanoma.
What all share (experiment): DTP human tumour cell line panel, 48 h

For orientation: TGI means the concentration at which net growth stops. Read a low TGI as more potent growth arrest. Turning to `CCOC(CN=c1nc(N(C)C)ss1)OCC`, the TGI with SK-MEL-5 melanoma is more than 100 µM; in the test on OVCAR-4 ovarian, 33.1 µM; with SK-MEL-28 melanoma, 58.9 µM; in the test with HCT-116 colon, 31.2 µM; in the test with MDA-MB-231 breast, 29.8 µM; in the test on 786-0 renal, 39.7 µM. Besides, the TGI with MCF7 breast is more than 65.3 µM; in the test with SN12C renal, 36.8 µM; in the test with MDA-MB-435, 32.4 µM; in the test with UACC-62 melanoma, 21.4 µM.

For orientation: GI50 means the concentration at which growth is held to half of that of the control. Consider `Cc1ccc2c(=O)c3cccc(CC(=O)O)c3oc2c1C`, for which the GI50 in the test on SK-MEL-5 melanoma, in the test on OVCAR-4 ovarian, in the test on SK-MEL-28 melanoma, in the test on HCT-116 colon, in the test on MDA-MB-231 breast and in the test on 786-0 renal was more than 100 µM each time. For the same compound, the GI50 with MCF7 breast, with SN12C renal, in the test on MDA-MB-435 and in the test with UACC-62 melanoma was more than 100 µM in each case. Besides, the concentration for total growth inhibition (TGI) with SK-MEL-5 melanoma, in the test with OVCAR-4 ovarian, with SK-MEL-28 melanoma, with HCT-116 colon, in the test with MDA-MB-231 breast and with 786-0 renal was more than 100 µM in each case. Moreover, the TGI in the test on MCF7 breast, with SN12C renal, in the test on MDA-MB-435 and in the test with UACC-62 melanoma was more than 100 µM throughout.

`C=C1C(=O)O[C@H]2[C@H]1CC/C(Cn1cc(-c3ccccc3)nn1)=C\CC[C@@]1(C)O[C@@H]21`: the GI50 was 7.32 µM in the test with SK-MEL-5 melanoma; 3.22 µM in the test on OVCAR-4 ovarian; 1.06 µM with SK-MEL-28 melanoma; 1.17 µM in the test on HCT-116 colon; 2 µM in the test with MDA-MB-231 breast; 2.63 µM with 786-0 renal. For the same compound, the GI50 is 1.08 µM in the test on MCF7 breast, 4.5 µM in the test on SN12C renal, 2.37 µM in the test with MDA-MB-435 and 1.87 µM with UACC-62 melanoma. Besides, the TGI in the test with SK-MEL-5 melanoma worked out at 13.9 µM; in the test on OVCAR-4 ovarian, 12.1 µM; in the test on SK-MEL-28 melanoma, 2.48 µM; in the test with HCT-116 colon it was 2.7 µM; in the test on MDA-MB-231 breast it was 7.89 µM; with 786-0 renal, 8.79 µM. Also, the TGI with MCF7 breast worked out at 3.32 µM; with SN12C renal, 11.5 µM; in the test with MDA-MB-435, 9.18 µM; in the test on UACC-62 melanoma, 8.22 µM.

`O=C1c2ccccc2-c2c1c1ccccc1c(=O)n2CCCN1CCOCC1`: the GI50 in the test with SK-MEL-5 melanoma is 12.3 µM; in the test with OVCAR-4 ovarian, more than 100 µM; in the test with SK-MEL-28 melanoma it was more than 100 µM; with HCT-116 colon, 13.6 µM; with MDA-MB-231 breast, 12 µM; with 786-0 renal, 3.94 µM. Besides, the GI50 was 9.31 µM in the test on MCF7 breast, 21.3 µM with SN12C renal, more than 100 µM in the test with MDA-MB-435 and 5.83 µM with UACC-62 melanoma. In addition, the TGI in the test on SK-MEL-5 melanoma was more than 95 µM; with OVCAR-4 ovarian, more than 100 µM; with SK-MEL-28 melanoma it was more than 100 µM; in the test with HCT-116 colon it was 31.8 µM; with MDA-MB-231 breast, 34.1 µM; in the test on 786-0 renal, 18.5 µM. Moreover, the TGI is more than 100 µM in the test with MCF7 breast, more than 100 µM in the test on SN12C renal, more than 100 µM with MDA-MB-435 and 21 µM with UACC-62 melanoma.

For the compound `O=C1OC(=O)C2C1C1(c3ccccc3)C(c3ccccc3)=C(c3ccccc3)C2(c2ccccc2)S1=O` (stereo not given), the GI50 with SK-MEL-5 melanoma, with OVCAR-4 ovarian, in the test on SK-MEL-28 melanoma, in the test on HCT-116 colon, with MDA-MB-231 breast and with 786-0 renal was more than 100 µM in each case. Besides, the GI50 in the test on MCF7 breast is more than 100 µM; in the test on SN12C renal it was more than 100 µM; with MDA-MB-435, more than 100 µM; in the test on UACC-62 melanoma it was 49.4 µM. Further, the TGI in the test on SK-MEL-5 melanoma, in the test on OVCAR-4 ovarian, in the test on SK-MEL-28 melanoma, in the test with HCT-116 colon, with MDA-MB-231 breast and with 786-0 renal was more than 100 µM throughout. The TGI in the test with MCF7 breast, with SN12C renal, in the test with MDA-MB-435 and in the test on UACC-62 melanoma was more than 100 µM throughout.

Turning to `Cc1cc2c(F)c(Oc3ncnn4cc(OC[C@@H](C)OC(=O)[C@H](C)N)c(C)c34)ccc2[nH]1`, the GI50 with SK-MEL-5 melanoma is 3.26 µM; in the test on OVCAR-4 ovarian, 11.3 µM; with SK-MEL-28 melanoma, 12.9 µM; with HCT-116 colon, 3.38 µM; with MDA-MB-231 breast, 14.1 µM; with 786-0 renal it was 12 µM. Further, the GI50 in the test with MCF7 breast was 8.58 µM; in the test on SN12C renal, 12.6 µM; with MDA-MB-435, 11.3 µM; in the test on UACC-62 melanoma, 8.67 µM. The TGI was found to be 15.1 µM in the test with SK-MEL-5 melanoma; 23.8 µM in the test on OVCAR-4 ovarian; 25.7 µM in the test with SK-MEL-28 melanoma; 18.9 µM in the test with HCT-116 colon; 29.7 µM in the test with MDA-MB-231 breast; 26.9 µM with 786-0 renal. Moreover, the TGI in the test with MCF7 breast was found to be 24 µM; with SN12C renal, 26.2 µM; in the test with MDA-MB-435 it was 23.8 µM; with UACC-62 melanoma, 21.9 µM.

Regarding `CN(C)c1ccc2c3c(c(=O)oc2c1)CCC3`, the TGI in the test on SK-MEL-5 melanoma, in the test on OVCAR-4 ovarian, with SK-MEL-28 melanoma, with HCT-116 colon, in the test on MDA-MB-231 breast and with 786-0 renal was more than 100 µM in each case. Further, the concentration for total growth inhibition (TGI) with MCF7 breast, in the test with SN12C renal, in the test with MDA-MB-435 and in the test with UACC-62 melanoma was more than 100 µM throughout.

For the compound `CCN(CC)CCOc1ccc(/C=C2\CC3C4CC=C5C[C@@H](N6CCCC6)CC[C@]5(C)C4CC[C@]3(C)[C@H]2O)cc1OC` (stereo not given in full), the GI50 was 0.336 µM in the test with SK-MEL-5 melanoma; 24 µM in the test with OVCAR-4 ovarian; 20.5 µM in the test with SK-MEL-28 melanoma; 1.38 µM with HCT-116 colon; 2.96 µM in the test on MDA-MB-231 breast; 2.64 µM in the test on 786-0 renal. Moreover, the GI50 in the test on MCF7 breast is 4.45 µM; with SN12C renal it was 20.6 µM; in the test on MDA-MB-435, 3.86 µM; in the test with UACC-62 melanoma it was 16.6 µM. Also, the TGI was 1.95 µM with SK-MEL-5 melanoma; more than 82.3 µM with OVCAR-4 ovarian; more than 65.7 µM in the test on SK-MEL-28 melanoma; 11 µM in the test on HCT-116 colon; 7.58 µM with MDA-MB-231 breast; 10.1 µM in the test on 786-0 renal. Further, the TGI in the test with MCF7 breast was more than 59 µM; in the test on SN12C renal it was more than 63.5 µM; in the test on MDA-MB-435 it was 14.5 µM; in the test on UACC-62 melanoma it was 34.6 µM.
